The values that follow come from patent US8680113B2, “BMI-1 protein expression modulators” (PTC Therapeutics, Inc., priority 2008, dated 2014).

For this test, the system named is Bmi-1. The test can be described thus: Sandwich ELISA Assay (Bmi-1 ELISA in HT-1080 cells). In kind it is cell-based, human. As for the experimental part:
Cell Seeding and Compound Treatment (Day 1):
HT-1080 cells were seeded at 8000 cells/well (50 uL) in 96-well tissue culture plates. After the cells become adherent (3-4 hours), 2× diluted stocks of compounds in 50 uL DMEM containing 1% DMSO (final DMSO concentration was 0.5%) were added and the plates were incubated at 37° C. under 5% CO2 for 40-48 hours
ELISA Plate First Antibody Preparation (Day 2):
The First Antibody (Millipore Mouse, monoclonal to mouse Bmi-1, clone F6, catalog #05-637) diluted to 2 ug/mL in PBS was added (100 uL) to each well of a Nunc MaxiSorp 96-well ELISA plate. The plate was covered with a plate seal and allowed to stand overnight.
Cell Lysate Preparation (Day 3):
Fresh 1× Lysis buffer was prepared on the day of the assay as follows: 1 mM EDTA, 150 mM NaCl, 0.5% Triton-X 100, 10 mM NaF, 20 mM B-Glycerophosphate, 1 mM DTT (in PBS, pH 7.2-7.4) and 1×HALT protease inhibitor cocktail (Pierce #78410).
1× Lysis Buffer (40 uL) was added to each well and the plate was shaken for 5-10 minutes on an orbital shaker to allow cell lysis, then Diluent (1% BSA in PBS in 0.5% NP40) (100 uL) was added to each well.
The Bmi-1 standard curve was prepared in Diluent at the following concentrations of protein: 8000, 4000, 2000, 1000, 500, 250, 125, 0 pg/mL The Bmi-1 Recombinant Protein Standard (Novus Biologicals PCGF4 Recombinant Protein (P01), catalog #H00000648-P01) used in the standard curve was stored at −80° C., and on first thaw, diluted to 10 ug/uL in Blocking Buffer (1% BSA in PBS; BSA: Fisher Scientific Catalog #1600-100) before being aliquoted and refrozen at −80° C. Aliquots can be kept at 4° C. and reused after first thaw, but only for 1-2 weeks. The Bmi-1 Recombinant Protein Standard contains a GST-fusion tag and thus will show up on western blots around 70 Kda.
The prepared ELISA plate was washed 3× with Wash Buffer (0.05% Tween-20 in PBS). The final wash was removed from the plate and the plate was blotted dry on paper towels. Blocking Buffer (300 uL) (1% BSA in PBS) was added per well. The plate was covered with a plate seal and incubated at room temperature for 1 hour. The blocked plate was washed 3× with Wash Buffer, the final wash was removed and the plate was blotted dry on paper towels. The previously prepared samples and standards were added (at 100 uL/well) and the plate was covered with a plate seal and incubated at 4° C. overnight.
The prepared ELISA plate was removed from 4° C., incubated at room temperature for 30 minutes, then washed and blotted dry as previously described for Day 3. The Second Antibody (Cell Signaling Rabbit anti-Bmi-1, Cat#2830) diluted to 1:600 in Blocking Buffer was added (100 uL) to each well, except as needed for background control wells. The plate was covered with a plate seal and incubated for 1.5 hrs at room temperature.
The ELISA plate was washed and blotted dry as previously described. The Third Antibody (Cell Signaling HRP conjugated anti-rabbit IgG (CellSignaling, Cat#:7074) diluted to 1:300 in Blocking Buffer was added (100 uL) to each well, except as needed for background control wells. The plate was incubated for 1 hr at room temperature.
The plate was washed and blotted dry as previously described, then prepared TMB substrate (TMB substrate kit, Pierce catalog #34021) (prepared by mixing kit reagents 1:1) (100 uL) was added per well. The plate was incubated for 20-30 minutes at room temperature in the dark, then Stop Solution (2 M sulfuric acid in water) (50 uL) was added per well. The plates were read at OD450 (experimental) and OD570 (reference).
For `Cc1nc2ncccn2c1-c1csc(Nc2ccc(C(C)C)cc2)n1` [Cpd 87, 4-(2-methylimidazo[1,2-a]pyrimidin-3-yl)-N-[4-(propan-2-yl)phenyl]-1,3-thiazol-2-amine], the IC50 is less than 500 nM. As to `CCOc1ccc(Nc2nc(-c3c(C)nc4ccc(Cl)cn34)cs2)cc1` [Cpd 88, 4-(6-chloro-2-methylimidazo[1,2-a]pyridin-3-yl)-N-(4-ethoxyphenyl)-1,3-thiazol-2-amine], the 50% inhibitory concentration (IC50) was less than 500 nM. With `Cc1ccc(Nc2nc(-c3c(C)nc4ccc(Cl)cn34)cs2)cc1` [Cpd 89, 4-(6-chloro-2-methylimidazo[1,2-a]pyridin-3-yl)-N-(4-methylphenyl)-1,3-thiazol-2-amine], the IC50 is less than 500 nM. As for `CCc1ccc(Nc2nc(-c3c(C)nc4ccc(Cl)cn34)cs2)cc1` [Cpd 90, 4-(6-chloro-2-methylimidazo[1,2-a]pyridin-3-yl)-N-(4-ethylphenyl)-1,3-thiazol-2-amine], the figure is less than 500 nM.

`Cc1nc2ccc(Cl)cn2c1-c1csc(Nc2ccc(C(C)C)cc2)n1` [Cpd 91, 4-(6-chloro-2-methylimidazo[1,2-a]pyridin-3-yl)-N-[4-(propan-2-yl)phenyl]-1,3-thiazol-2-amine] showed an IC50 of less than 500 nM. As for `Cc1nc2ccc(Cl)cn2c1-c1csc(Nc2ccc(O)cc2)n1` [Cpd 92, 4-{[4-(6-chloro-2-methylimidazo[1,2-a]pyridin-3-yl)-1,3-thiazol-2-yl]amino}phenol], the figure is less than 500 nM. As to `COCCOc1ccc(Nc2nc(-c3c(C)nc4ccc(Cl)cn34)cs2)cc1` [Cpd 93, 4-(6-chloro-2-methylimidazo[1,2-a]pyridin-3-yl)-N-[4-(2-methoxyethoxy)phenyl]-1,3-thiazol-2-amine], the 50% inhibitory concentration (IC50) is less than 500 nM. Regarding `Cc1nc2c(O)cccn2c1-c1csc(Nc2ccc3c(c2)OCO3)n1` [Cpd 94, 3-[2-(1,3-benzodioxol-5-ylamino)-1,3-thiazol-4-yl]-2-methylimidazo[1,2-a]pyridin-8-ol], the IC50 is less than 500 nM. Molecule `COc1ccc(Nc2nc(-c3c(C)nc4ccc(Cl)cn34)cs2)cc1Cl` [Cpd 95, N-(3-chloro-4-methoxyphenyl)-4-(6-chloro-2-methylimidazo[1,2-a]pyridin-3-yl)-1,3-thiazol-2-amine] had an IC50 of less than 500 nM. As for `COc1ccc(Nc2nc(-c3c(C)nc4ccc(Cl)cn34)cs2)cc1F` [Cpd 96, 4-(6-chloro-2-methylimidazo[1,2-a]pyridin-3-yl)-N-(3-fluoro-4-methoxyphenyl)-1,3-thiazol-2-amine], the figure is less than 500 nM; as for `CC(=O)Nc1ccc(Nc2nc(-c3c(C)nc4ccc(Cl)cn34)cs2)cc1` [Cpd 97, N-(4-{[4-(6-chloro-2-methylimidazo[1,2-a]pyridin-3-yl)-1,3-thiazol-2-yl]amino}phenyl)acetamide], less than 500 nM; as for `Cc1nc2ccc(Cl)cn2c1-c1csc(Nc2c(Cl)cccc2Cl)n1` [Cpd 98, 4-(6-chloro-2-methylimidazo[1,2-a]pyridin-3-yl)-N-(2,6-dichlorophenyl)-1,3-thiazol-2-amine], less than 500 nM. As for `CC(=O)c1ccc(Nc2nc(-c3c(C)nc4ccc(Br)cn34)cs2)cc1` [Cpd 99, 1-(4-{[4-(6-bromo-2-methylimidazo[1,2-a]pyridin-3-yl)-1,3-thiazol-2-yl]amino}phenyl)ethanone], the figure is less than 500 nM; as for `Cc1nc2ccc(Br)cn2c1-c1csc(Nc2ccc(Cl)cc2)n1` [Cpd 100, 4-(6-bromo-2-methylimidazo[1,2-a]pyridin-3-yl)-N-(4-chlorophenyl)-1,3-thiazol-2-amine], less than 500 nM; as for `Cc1nc2ccc(Br)cn2c1-c1csc(Nc2ccc(I)cc2)n1` [Cpd 101, 4-(6-bromo-2-methylimidazo[1,2-a]pyridin-3-yl)-N-(4-iodophenyl)-1,3-thiazol-2-amine], less than 500 nM. In turn, `Cc1nc2ccc(Br)cn2c1-c1csc(Nc2ccc(Br)cc2)n1` [Cpd 102, 4-(6-bromo-2-methylimidazo[1,2-a]pyridin-3-yl)-N-(4-bromophenyl)-1,3-thiazol-2-amine] registered a concentration for half-maximal inhibition (IC50) of less than 500 nM.

In turn, `COc1ccc(Nc2nc(-c3c(C)nc4ccc(Br)cn34)cs2)cc1Cl` [Cpd 103, 4-(6-bromo-2-methylimidazo[1,2-a]pyridin-3-yl)-N-(3-chloro-4-methoxyphenyl)-1,3-thiazol-2-amine] gave an IC50 of less than 500 nM. For the molecule `COc1ccc(Nc2nc(-c3c(C)nc4ccc(Br)cn34)cs2)cc1F` [Cpd 104, 4-(6-bromo-2-methylimidazo[1,2-a]pyridin-3-yl)-N-(3-fluoro-4-methoxyphenyl)-1,3-thiazol-2-amine], the half-inhibitory concentration (IC50) is less than 500 nM. In turn, `COc1ccc(Nc2nc(-c3cnc4ccc(Cl)cn34)cs2)cc1` [Cpd 105, 4-(6-chloroimidazo[1,2-a]pyridin-3-yl)-N-(4-methoxyphenyl)-1,3-thiazol-2-amine] displayed a 50% inhibitory concentration (IC50) of less than 500 nM. Molecule `CN(C)c1ccc(Nc2nc(-c3cnc4ccc(Cl)cn34)cs2)cc1` [Cpd 106, N′-[4-(6-chloroimidazo[1,2-a]pyridin-3-yl)-1,3-thiazol-2-yl]-N,N-dimethylbenzene-1,4-diamine] returned an IC50 of less than 500 nM. `CC(=O)c1ccc(Nc2nc(-c3cnc4ccc(Cl)cn34)cs2)cc1` [Cpd 107, 1-(4-{[4-(6-chloroimidazo[1,2-a]pyridin-3-yl)-1,3-thiazol-2-yl]amino}phenyl)ethanone] returned a 50% inhibitory concentration (IC50) of less than 500 nM. With `Clc1ccc2ncc(-c3csc(Nc4ccc(I)cc4)n3)n2c1` [Cpd 108, 4-(6-chloroimidazo[1,2-a]pyridin-3-yl)-N-(4-iodophenyl)-1,3-thiazol-2-amine], the half-maximal inhibitory concentration (IC50) was less than 500 nM. `COc1ccc(Nc2nc(-c3cnc4ccc(Cl)cn34)cs2)cc1Cl` [Cpd 109, 4-(6-chloroimidazo[1,2-a]pyridin-3-yl)-N-(3-chloro-4-methoxyphenyl)-1,3-thiazol-2-amine] gave an IC50 of less than 500 nM. As to `COc1ccc(Nc2nc(-c3cnc4ccc(Cl)cn34)cs2)cc1F` [Cpd 110, 4-(6-chloroimidazo[1,2-a]pyridin-3-yl)-N-(3-fluoro-4-methoxyphenyl)-1,3-thiazol-2-amine], the 50% inhibitory concentration (IC50) was less than 500 nM.

The molecule `Cc1nc2ccc(Cl)cn2c1-c1csc(Nc2ccc(Cl)c(Cl)c2)n1` [Cpd 111, 4-(6-chloro-2-methylimidazo[1,2-a]pyridin-3-yl)-N-(3,4-dichlorophenyl)-1,3-thiazol-2-amine] returned an IC50 of less than 500 nM.

Consider `Cc1nc2ccc(Cl)cn2c1-c1csc(Nc2ccc(C(C)(C)C)cc2)n1` [Cpd 112, N-(4-tert-butylphenyl)-4-(6-chloro-2-methylimidazo[1,2-a]pyridin-3-yl)-1,3-thiazol-2-amine], for which the IC50 was less than 500 nM. Consider `Cc1nc2ccccn2c1-c1ccnc(Nc2ccc(Cl)cc2)n1` [Cpd 113, N-(4-chlorophenyl)-4-(2-methylimidazo[1,2-a]pyridin-3-yl)pyrimidin-2-amine], for which the IC50 was less than 500 nM. Consider `Cc1nc2ccccn2c1-c1ccnc(Nc2ccc(Br)cc2)n1` [Cpd 114, N-(4-bromophenyl)-4-(2-methylimidazo[1,2-a]pyridin-3-yl)pyrimidin-2-amine], for which the half-maximal inhibitory concentration (IC50) is less than 500 nM. `COc1ccc(Nc2nccc(-c3c(C)nc4ncccn34)n2)cc1` [Cpd 115, N-(4-methoxyphenyl)-4-(2-methylimidazo[1,2-a]pyrimidin-3-yl)pyrimidin-2-amine] displayed an IC50 of less than 500 nM.
